Drawing on US20230265151A1, “GIP/GLP1 CO-AGONIST COMPOUNDS” (priority 2020, published 2023), this text covers Emax and EC50 for four compounds.

Holding throughout (format): cell-based
For assay [1], the target named is T1, hGIPR (Homo sapiens, UniProt P48546).
T1 construct: expressed in transfected cells
T1 sequence (P48546 22-466): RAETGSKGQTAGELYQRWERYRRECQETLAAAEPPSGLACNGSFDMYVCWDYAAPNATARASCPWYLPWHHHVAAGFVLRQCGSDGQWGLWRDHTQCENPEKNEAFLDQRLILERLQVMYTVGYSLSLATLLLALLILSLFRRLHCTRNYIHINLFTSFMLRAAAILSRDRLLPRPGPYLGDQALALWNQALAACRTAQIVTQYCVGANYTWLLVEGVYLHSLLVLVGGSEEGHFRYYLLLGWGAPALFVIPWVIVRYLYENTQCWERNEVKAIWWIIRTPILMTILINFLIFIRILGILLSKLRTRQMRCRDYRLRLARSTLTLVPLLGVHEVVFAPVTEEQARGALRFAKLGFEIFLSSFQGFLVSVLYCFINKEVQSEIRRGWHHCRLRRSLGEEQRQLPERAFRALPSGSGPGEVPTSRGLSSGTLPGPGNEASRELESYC
Description: Functional cAMP formation (HTRF) in HEK-293 clonal cells expressing hGIPR, 0.1% bovine casein, without or with 1.0% human serum albumin. The note with it: for Emax: percent of maximal response to GIP(1-42)NH2; for EC50: cAMP. A digest of the protocol:
(§1)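 Readings of the HTRF 665/620 nm ratio, which falls as cAMP rises, were converted to nM cAMP using a standard curve after 30 min peptide exposure at 37° C.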

The target in assay [2] is hGLP-1R (Homo sapiens, UniProt P43220). Description: Functional cAMP formation (HTRF) in HEK-293 clonal cells expressing hGLP-1R, 0.1% bovine casein, without or with 1.0% human serum albumin. The note with it: for Emax: percent of maximal response to GLP-1(7-36)NH2, read-out: hGLP-1R Emax, % ± SEM; for EC50: cAMP, 0.1% bovine casein (no human serum albumin), geometric mean. Details: expressed in transfected cells. The method, boiled down: as §1

Assay [3] addresses T2, hGCGR (Homo sapiens, UniProt P47871).
T2 construct: expressed in transfected cells
Description: Functional cAMP formation (HTRF) in HEK-293 clonal cells expressing hGCGR, 0.1% bovine casein, without or with 1.0% human serum albumin. The method, boiled down: as §1
Background: cAMP levels reflect the balance of adenylyl cyclase and phosphodiesterase activity.

[4] abbreviates: HEK293, cAMP, 37° C., 0.1% bovine casein and 1.0% human serum albumin, read-out: hGIPR Emax, % ± SEM.
The mark [5] stands for this setting: 37° C., 0.1% bovine casein (no human serum albumin), geometric mean, read-out: hGIPR EC50, nM (SEM, n).
Setting [6] is: 37° C., read-out: hGLP-1R EC50, nM (SEM, n).
[7] abbreviates: cAMP, 37° C., 0.1% bovine casein (no human serum albumin), geometric mean, read-out: hGCGR EC50, nM (SEM, n).
Where [8] appears, read: cAMP, 37° C., 0.1% bovine casein and 1.0% human serum albumin, geometric mean (SEM, n), read-out: hGCGR EC50, nM (SEM, n).

Read-outs that look alike come from different tables or passages of the source. *1 amine or outer side, *2 acyl side, *3 side chain or, on linkers, in order; H or OH if unused. Where a SMILES comes first, the peptide text is derived from it. Side-chain parts run from the residue outwards. [ ]: non-standard residue; d: D form. The star is where a group is joined. αMePhe(2-F) = C[C@](N)(Cc1ccccc1F)C(=O)O; γGlu = O=C(O)[C@H](CCC(=O)[*:2])N[*:1]; C14 diacid = O=C(O)CCCCCCCCCCCCC(=O)*; αMeY = C[C@](N)(Cc1ccc(O)cc1)C(=O)O; αMeL = CC(C)C[C@](C)(N)C(=O)O; Orn = NCCC[C@H](N)C(=O)O; AEEA = NCCOCCOCC(=O)O; Aib = CC(C)(N)C(=O)O

T2 sequence (P47871 26-477): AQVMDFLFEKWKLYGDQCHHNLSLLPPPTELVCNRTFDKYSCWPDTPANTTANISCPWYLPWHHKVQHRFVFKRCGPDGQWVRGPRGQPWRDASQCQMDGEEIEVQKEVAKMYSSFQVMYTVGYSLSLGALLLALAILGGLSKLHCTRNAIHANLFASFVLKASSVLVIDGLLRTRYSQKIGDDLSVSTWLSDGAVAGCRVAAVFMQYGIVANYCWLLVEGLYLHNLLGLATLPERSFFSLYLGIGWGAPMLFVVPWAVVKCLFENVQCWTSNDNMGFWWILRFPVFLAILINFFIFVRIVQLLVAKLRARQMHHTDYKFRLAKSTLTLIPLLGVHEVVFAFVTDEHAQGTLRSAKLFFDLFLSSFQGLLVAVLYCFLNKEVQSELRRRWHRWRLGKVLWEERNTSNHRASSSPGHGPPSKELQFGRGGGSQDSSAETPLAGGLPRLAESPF
Chain of hGLP-1R (P43220 24-463): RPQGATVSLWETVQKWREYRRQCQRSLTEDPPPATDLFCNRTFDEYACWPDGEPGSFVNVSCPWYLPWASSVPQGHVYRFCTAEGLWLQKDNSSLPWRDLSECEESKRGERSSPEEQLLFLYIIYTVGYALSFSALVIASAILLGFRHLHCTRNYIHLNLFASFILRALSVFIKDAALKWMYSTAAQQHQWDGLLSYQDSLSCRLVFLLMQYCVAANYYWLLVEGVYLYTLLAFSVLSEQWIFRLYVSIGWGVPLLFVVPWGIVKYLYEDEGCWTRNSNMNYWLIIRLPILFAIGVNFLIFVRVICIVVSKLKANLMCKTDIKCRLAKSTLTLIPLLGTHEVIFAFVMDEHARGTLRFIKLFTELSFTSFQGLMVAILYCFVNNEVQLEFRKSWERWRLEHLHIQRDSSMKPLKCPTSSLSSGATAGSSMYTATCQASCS

Turning to `CC[C@H](C)[C@H](NC(=O)[C@H](CC(C)C)NC(=O)[C@](C)(Cc1ccc(O)cc1)NC(=O)[C@@H](CCC(=O)O)NC(=O)[C@@H](NC(=O)[C@H](Cc1ccccc1)NC(=O)[C@H](CCCCNC(=O)CCOCCOCCOCCNC(=O)CC[C@H](NC(=O)CCCCCCCCCCCCC(=O)O)C(=O)O)NC(=O)C(C)(C)NC(=O)[C@H](CCC(N)=O)NC(=O)[C@H](C)NC(=O)[C@H](CCCCNC(=O)CCOCCOCCOCCNC(=O)CC[C@H](NC(=O)CCCCCCCCCCCCC(=O)O)C(=O)O)NC(=O)[C@H](CCCN)NC(=O)[C@H](CC(=O)O)NC(=O)[C@H](CC(C)C)NC(=O)[C@](C)(CC(C)C)NC(=O)[C@@H](NC(=O)C(C)(C)NC(=O)[C@H](Cc1ccncc1)NC(=O)[C@H](CC(=O)O)NC(=O)[C@H](CO)NC(=O)[C@@H](NC(=O)[C@](C)(Cc1ccccc1F)NC(=O)[C@@H](NC(=O)CNC(=O)[C@H](CCC(=O)O)NC(=O)C(C)(C)NC(=O)[C@@H](N)Cc1ccc(O)cc1)[C@@H](C)O)[C@@H](C)O)[C@@H](C)CC)[C@@H](C)CC)C(=O)N[C@@H](CCC(=O)O)C(=O)NCC(=O)NCC(=O)N1CCC[C@H]1C(=O)N[C@@H](CO)C(=O)N[C@@H](CO)C(=O)NCC(=O)N[C@@H](C)C(=O)N1CCC[C@H]1C(=O)N1CCC[C@H]1C(=O)N1CCC[C@H]1C(=O)N[C@@H](CO)C(N)=O` [Example 404], the Emax – broadly, the size of the effect at its maximum, as opposed to the concentration needed – in assay [1] (setting [4]) came to 77.3%; in assay [2] (HEK293, cAMP, 37° C., 0.1% bovine casein, arithmetic mean) it was 94.3%. The EC50 – broadly, the midpoint of the concentration-response curve – in assay [1] (setting [5]) is 0.014 nM; in assay [2] (setting [6]), 0.632 nM; in assay [3] (setting [7]) it was more than 9950 nM; in assay [3] (setting [8]) it was more than 9950 nM.
Take `CC[C@H](C)[C@H](NC(=O)[C@H](CC(C)C)NC(=O)[C@](C)(Cc1ccc(O)cc1)NC(=O)[C@@H](CCC(=O)O)NC(=O)[C@@H](NC(=O)[C@H](Cc1ccccc1)NC(=O)[C@H](CCC(=O)O)NC(=O)C(C)(C)NC(=O)[C@H](CCC(N)=O)NC(=O)[C@H](C)NC(=O)[C@H](CCCCNC(=O)COCCOCCNC(=O)CC[C@H](NC(=O)CCCCCCCCCOc1ccc(C(=O)O)cc1)C(=O)O)NC(=O)[C@H](CCCN)NC(=O)[C@H](CC(=O)O)NC(=O)[C@H](CC(C)C)NC(=O)[C@](C)(CC(C)C)NC(=O)[C@@H](NC(=O)C(C)(C)NC(=O)[C@@H](NC(=O)[C@H](CC(=O)O)NC(=O)[C@H](CO)NC(=O)[C@@H](NC(=O)[C@](C)(Cc1ccccc1F)NC(=O)[C@@H](NC(=O)CNC(=O)[C@H](CCC(=O)O)NC(=O)C(C)(C)NC(=O)[C@@H](N)Cc1ccc(O)cc1)[C@@H](C)O)[C@@H](C)O)C(C)C)[C@@H](C)CC)[C@@H](C)CC)C(=O)N[C@@H](CCCCNC(=O)COCCOCCNC(=O)CC[C@H](NC(=O)CCCCCCCCCOc1ccc(C(=O)O)cc1)C(=O)O)C(=O)NCC(=O)NCC(=O)N1CCC[C@H]1C(=O)N[C@@H](CO)C(=O)N[C@@H](CO)C(=O)NCC(=O)N[C@@H](C)C(=O)N1CCC[C@H]1C(=O)N1CCC[C@H]1C(=O)N1CCC[C@H]1C(=O)N[C@@H](CO)C(N)=O` [Example 379]: the Emax in assay [1] (HEK293, read-out: hGIPR Emax, % ± SEM, cAMP, 37° C., 0.1% bovine casein and 1.0% human serum albumin) came to 90%; in assay [1] (HEK293, read-out: hGIPR Emax, % ± SEM, cAMP, 37° C., 0.1% bovine casein, arithmetic mean), 97.5%. The EC50 is 0.0167 nM in assay [1] (hGIPR EC50, nM (SEM, n), 37° C., 0.1% bovine casein (no human serum albumin), geometric mean); 11.6 nM in assay [1] (hGIPR EC50, nM (SEM, n), 37° C., 0.1% bovine casein and 1.0% human serum albumin, geometric mean (SEM, n)); 0.171 nM in assay [2] (hGLP-1R EC50, nM (SEM, n), 37° C.); more than 9950 nM in assay [3] (hGCGR EC50, nM (SEM, n), cAMP, 37° C., 0.1% bovine casein (no human serum albumin), geometric mean); more than 9950 nM in assay [3] (hGCGR EC50, nM (SEM, n), cAMP, 37° C., 0.1% bovine casein and 1.0% human serum albumin, geometric mean (SEM, n)).
For `CC[C@H](C)[C@H](NC(=O)[C@H](CC(C)C)NC(=O)[C@](C)(Cc1ccc(O)cc1)NC(=O)[C@@H](CCC(=O)O)NC(=O)[C@@H](NC(=O)[C@H](Cc1ccccc1)NC(=O)[C@H](CCCCNC(=O)COCCOCCNC(=O)CC[C@H](NC(=O)CCCCCCCCCCCCC(=O)O)C(=O)O)NC(=O)C(C)(C)NC(=O)[C@H](CCC(N)=O)NC(=O)[C@H](C)NC(=O)[C@H](CCCCNC(=O)COCCOCCNC(=O)CC[C@H](NC(=O)CCCCCCCCCCCCC(=O)O)C(=O)O)NC(=O)[C@H](CCCN)NC(=O)[C@H](CC(=O)O)NC(=O)[C@H](CC(C)C)NC(=O)[C@](C)(CC(C)C)NC(=O)[C@@H](NC(=O)C(C)(C)NC(=O)[C@H](Cc1ccncc1)NC(=O)[C@H](CC(=O)O)NC(=O)[C@H](CO)NC(=O)[C@@H](NC(=O)[C@](C)(Cc1ccccc1F)NC(=O)[C@@H](NC(=O)CNC(=O)[C@H](CCC(=O)O)NC(=O)C(C)(C)NC(=O)[C@@H](N)Cc1ccc(O)cc1)[C@@H](C)O)[C@@H](C)O)[C@@H](C)CC)[C@@H](C)CC)C(=O)N[C@@H](CCC(=O)O)C(=O)NCC(=O)NCC(=O)N1CCC[C@H]1C(=O)N[C@@H](CO)C(=O)N[C@@H](CO)C(=O)NCC(=O)N[C@@H](C)C(=O)N1CCC[C@H]1C(=O)N1CCC[C@H]1C(=O)N1CCC[C@H]1C(=O)N[C@@H](CO)C(N)=O` [Example 336], the Emax was found to be 94.6% in assay [1] (setting [4]) and 109% in assay [1] (HEK293, cAMP, 37° C., 0.1% bovine casein, arithmetic mean, read-out: hGIPR Emax, % ± SEM). The EC50 in assay [1] (setting [5]) is 0.0136 nM; in assay [1] (37° C., 0.1% bovine casein and 1.0% human serum albumin, geometric mean (SEM, n), read-out: hGIPR EC50, nM (SEM, n)), 2.92 nM; in assay [2] (setting [6]), 0.338 nM; in assay [3] (setting [7]) it was more than 10100 nM; in assay [3] (setting [8]) it was more than 10100 nM.
Consider `CC[C@H](C)[C@H](NC(=O)[C@H](CCCN)NC(=O)[C@H](CC(=O)O)NC(=O)[C@H](CC(C)C)NC(=O)[C@](C)(CC(C)C)NC(=O)[C@@H](NC(=O)C(C)(C)NC(=O)[C@H](Cc1ccc(O)cc1)NC(=O)[C@H](CC(=O)O)NC(=O)[C@H](CO)NC(=O)[C@@H](NC(=O)[C@](C)(Cc1ccccc1F)NC(=O)[C@@H](NC(=O)CNC(=O)[C@H](CCC(=O)O)NC(=O)C(C)(C)NC(=O)[C@@H](N)Cc1ccc(O)cc1)[C@@H](C)O)[C@@H](C)O)[C@@H](C)CC)C(=O)N[C@@H](C)C(=O)N[C@@H](CCC(N)=O)C(=O)NC(C)(C)C(=O)N[C@@H](CCCCNC(=O)COCCOCCNC(=O)COCCOCCNC(=O)CC[C@H](NC(=O)CCCCCCCCCCCCC(=O)O)C(=O)O)C(=O)N[C@@H](Cc1ccccc1)C(=O)N[C@H](C(=O)N[C@H](CCC(=O)O)C(=O)N[C@@](C)(Cc1ccc(O)cc1)C(=O)N[C@@H](CC(C)C)C(=O)N[C@H](C(=O)N[C@@H](CCC(=O)O)C(=O)NCC(=O)NCC(=O)N1CCC[C@H]1C(=O)N[C@@H](CO)C(=O)N[C@@H](CO)C(=O)NCC(=O)N[C@@H](C)C(=O)N1CCC[C@H]1C(=O)N1CCC[C@H]1C(=O)N1CCC[C@H]1C(=O)N[C@@H](CO)C(=O)N[C@@H](CCCCNC(=O)COCCOCCNC(=O)COCCOCCNC(=O)CC[C@H](NC(=O)CCCCCCCCCCCCC(=O)O)C(=O)O)C(N)=O)[C@@H](C)CC)[C@@H](C)CC` [Example 235] (H-Y[Aib]EGT[αMePhe(2-F)]TSDY[Aib]I[αMeL]LD[Orn]IAQ[Aib]K([AEEA-AEEA-γGlu-C14 diacid])FI[dE][αMeY]LIEGGPSSGAPPPSK([AEEA-AEEA-γGlu-C14 diacid])-NH2; N-terminus assumed), for which the Emax in assay [1] (HEK293, 0.1% bovine casein and 1.0% human serum albumin, 37° C., read-out: hGIPR Emax, % ± SEM) is 92.2%; in assay [2] (HEK293, 0.1% bovine casein and 1.0% human serum albumin, 37° C.) it was 152%. Moreover, the EC50 in assay [1] (incubated at 37° C., 0.1% bovine casein (no human serum albumin), geometric mean, read-out: hGIPR EC50, nM (SEM, n)) was 0.0168 nM; in assay [2] (incubated at 37° C., read-out: hGLP-1R EC50, nM (SEM, n)), 0.295 nM; in assay [3] (0.1% bovine casein and 1.0% human serum albumin, 37° C., geometric mean, read-out: hGCGR EC50, nM (SEM, n)) it was more than 9950 nM; in assay [3] (cAMP, incubated at 37° C., 0.1% bovine casein (no human serum albumin), geometric mean, read-out: hGCGR EC50, nM (SEM, n)), more than 9950 nM.
